As usually defined, the inhibition is the relative decrease from the control value, in per cent.

In the experiment the target is T1, IL33 and ST2 binding (Homo sapiens, UniProt O95760).
T1 sequence (O95760 112-270 limits assumed): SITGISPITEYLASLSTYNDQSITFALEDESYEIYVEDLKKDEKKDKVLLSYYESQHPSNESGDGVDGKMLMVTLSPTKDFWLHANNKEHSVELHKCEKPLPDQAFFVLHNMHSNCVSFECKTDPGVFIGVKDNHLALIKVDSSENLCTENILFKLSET

Like-named read-outs stand apart in the source and are kept apart here.
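Also: plate ELISA with coated Flag-tagged human IL-33 and His-tagged human ST2, bound ST2 detected by anti-His HRP and TMB absorbance at 450 nm, 2 h compound incubation.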

With `CN(C)CCNC(=O)c1nc(-c2cc(F)cc(F)c2)oc1-c1ccccc1[N+](=O)[O-]` [Compound 237, 2-(3,5-Difluorophenyl)-N-(2-(dimethylamino)ethyl)-5-(2-nitrophenyl)oxazole-4-carboxamide], the inhibition (30 µM) is -34% and the inhibition (100 µM) was -16%.
For `CN1CCN(CCNC(=O)c2nc(-c3cccc(Cl)c3)oc2-c2ccccc2)CC1` [Compound 241, 2-(3-Chlorophenyl)-N-(2-(4-methylpiperazin-1-yl)ethyl)-5-phenyloxazole-4-carboxamide] the same measures were 31% and 38%.
For `CCOC(=O)c1nc(-c2ccc(C#N)cc2)oc1-c1ccccc1` [Compound 79, Ethyl 2-(4-cyanophenyl)-5-phenyloxazole-4-carboxylate] the same measures were 41% and 107%.
For `CCOC(=O)N1CCN(C(=O)c2nc(-c3ccc(C(F)(F)F)cc3)oc2-c2ccccc2[N+](=O)[O-])CC1` [Compound 163, Ethyl 4-(5-(2-nitrophenyl)-2-(4-(trifluoromethyl)phenyl)oxazole-4-carbonyl)piperazine-1-carboxylate] the same measures were -30% and -19%.
With `CN1CCN(CCNC(=O)c2nc(-c3ccc(OC(F)(F)F)cc3)oc2-c2ccccc2)CC1` [Compound 204, N-(2-(4-Methylpiperazin-1-yl)ethyl)-5-phenyl-2-(4-(trifluoromethoxy)phenyl)oxazole-4-carboxamide], the inhibition came to 1% (30 µM) and 36% (100 µM).
For `CN(C)CCNC(=O)c1nc(-c2ccc(C(C)(C)C)cc2)oc1-c1ccccc1` [Compound 265, 2-(4-(tert-Butyl)phenyl)-N-(2-(dimethylamino)ethyl)-5-phenyloxazole-4-carboxamide] the same measures were 5% and 14%.
For `CCOC(=O)c1nc(-c2ccc(C(F)(F)F)cc2)oc1-c1ccc(N)cc1` [Compound 101, Ethyl 5-(4-aminophenyl)-2-(4-(trifluoromethyl)phenyl)oxazole-4-carboxylate] the same measures were 1% and -24%.
On the same counts, the results for `O=C(c1nc(-c2ccc(C(F)(F)F)cc2)oc1-c1ccccc1[N+](=O)[O-])N1CCN(CCN2CCOCC2)CC1` [Compound 152, (4-(2-Morpholinoethyl)piperazin-1-yl)(5-(2-nitrophenyl)-2-(4-(trifluoromethyl)phenyl)oxazol-4-yl)methanone] are 36% and 48%.
Turning to `CCOC(=O)c1nc(-c2ccc(OC)cc2)oc1-c1ccc([N+](=O)[O-])cc1` [Compound 64, Ethyl 2-(4-methoxyphenyl)-5-(4-nitrophenyl)oxazole-4-carboxylate], the inhibition amounted to 13% (30 µM) and 35% (100 µM).
For `CS(=O)(=O)NCCNC(=O)c1nc(-c2ccc(C(F)(F)F)cc2)oc1-c1ccccc1[N+](=O)[O-]` [Compound 288, N-(2-(Methylsulfonamido)ethyl)-5-(2-nitrophenyl)-2-(4-(trifluoromethyl)phenyl)oxazole-4-carboxamide], the inhibition is, setting by setting: (30 µM) 43%; (100 µM) 50%.
For `O=C(NCCCN1CCCC1)c1nc(-c2ccc(C(F)(F)F)cc2)oc1-c1ccccc1[N+](=O)[O-]` [Compound 140, 5-(2-Nitrophenyl)-N-(3-(pyrrolidin-1-yl)propyl)-2-(4-(trifluoromethyl)phenyl)oxazole-4-carboxamide] the same measures were 10% and 15%.
As to `CN(C)CCN1CCN(C(=O)c2coc(-c3ccc(C(F)(F)F)cc3)n2)CC1` [Compound 116, (4-(2-(dimethylamino)ethyl)piperazin-1-yl)(2-(4-(trifluoromethyl)phenyl)oxazol-4-yl)methanone], the inhibition is, setting by setting: (30 µM) 13%; (100 µM) 26%.
For `CN(C)CCNC(=O)c1nc(-c2cccc(C(F)(F)F)c2)oc1-c1ccccc1[N+](=O)[O-]` [Compound 123, N-(2-(Dimethylamino)ethyl)-5-(2-nitrophenyl)-2-(3-(trifluoromethyl)phenyl)oxazole-4-carboxamide] the same measures were -22% and 39%.
As to `CN(C)CCNC(=O)c1nc(-c2ccc(N(C)C)cc2)oc1-c1ccccc1[N+](=O)[O-]` [Compound 263, N-(2-(Dimethylamino)ethyl)-2-(4-(dimethylamino)phenyl)-5-(2-nitrophenyl)oxazole-4-carboxamide], the inhibition by setting is: (30 µM) -35%; (100 µM) -10%.
For `COc1cccc(-c2nc(C(=O)NCCN(C)C)c(-c3ccccc3)o2)c1` [Compound 208, N-(2-(Dimethylamino)ethyl)-2-(3-methoxyphenyl)-5-phenyloxazole-4-carboxamide] the same measures were 19% and 55%.
On the same counts, the results for `CN1CCN(CCNC(=O)c2nc(-c3ccc(-c4ccccc4)cc3)oc2-c2ccccc2)CC1` [Compound 254, 2-([1,1′-Biphenyl]-4-yl)-N-(2-(4-methylpiperazin-1-yl)ethyl)-5-phenyloxazole-4-carboxamide] are -20% and 11%.
For `COCCNC(=O)c1nc(-c2ccc(C(F)(F)F)cc2)oc1-c1cccc(SC)c1` [Compound 293, N-(2-Methoxyethyl)-5-(3-(methylthio)phenyl)-2-(4-(trifluoromethyl)phenyl)oxazole-4-carboxamide] the same measures were 40% and 107%.
On to `CN(C)CCNC(=O)c1nc(-c2cccc(F)c2)oc1-c1ccccc1[N+](=O)[O-]` [Compound 222, N-(2-(Dimethylamino)ethyl)-2-(3-fluorophenyl)-5-(2-nitrophenyl)oxazole-4-carboxamide], for which the inhibition runs as follows: (30 µM) -28%; (100 µM) -16%.
For `CN1CCN(CCNC(=O)c2nc(-c3cccc(C(F)(F)F)c3)oc2-c2ccccc2[N+](=O)[O-])CC1` [Compound 124, N-(2-(4-Methylpiperazin-1-yl)ethyl)-5-(2-nitrophenyl)-2-(3-(trifluoromethyl)phenyl)oxazole-4-carboxamide] the same measures were 50% and 31%.
As for `CN1CCN(CCNC(=O)c2coc(-c3ccc(C(F)(F)F)cc3)n2)CC1` [Compound 115, N-(2-(4-methylpiperazin-1-yl)ethyl)-2-(4-(trifluoromethyl)phenyl)oxazole-4-carboxamide], the inhibition is, setting by setting: (30 µM) -22%; (100 µM) -17%.
On to `CN1CCN(CCNC(=O)c2nc(-c3ccc(F)cc3)oc2-c2ccccc2)CC1` [Compound 225, 2-(4-Fluorophenyl)-N-(2-(4-methylpiperazin-1-yl)ethyl)-5-phenyloxazole-4-carboxamide], for which the inhibition was -6% (30 µM) and 7% (100 µM).
For `CSc1ccc(-c2nc(C(=O)NCCN3CCN(C)CC3)c(-c3ccccc3[N+](=O)[O-])o2)cc1` [Compound 274, N-(2-(4-Methylpiperazin-1-yl)ethyl)-2-(4-(methylthio)phenyl)-5-(2-nitrophenyl)oxazole-4-carboxamide] the same measures were 18% and 20%.
For `CCOC(=O)c1nc(-c2ccc(F)c(F)c2)oc1-c1ccccc1[N+](=O)[O-]` [Compound 71, Ethyl 2-(3,4-difluorophenyl)-5-(2-nitrophenyl)oxazole-4-carboxylate] the same measures were 29% and 49%.

The record behind these values is patent US20240287052A1, “NOVEL OXAZOLE DERIVATIVE AND PHARMACEUTICAL COMPOSITION FOR PREVENTING OR TREATING ALLERGIC DISEASES COMPRISING THE SAME” (AZCURIS CO., LTD., priority 2021, published 2024).
